Results as given in patent US6838557B1, “Process for making a chelating agent for labeling biomolecules using preformed active esters” (Board of Regents The University of Texas System, priority 2002, dated 2005).

Assay: Stability of DOTA mono-NHS in water by 1H NMR (rate of change in the ratio Afree/Abound)
Assay type: physicochemical
Conditions: neutral pH, read-out: half-life for hydrolysis
Excerpt: For example, ^1H NMR spectra, such as that illustrated in FIG. 1, were used to measure the ratio of the areas (Afree/Abound) of the ^1H NMR signal corresponding to NHS free in solution (δfree −2.6 ppm; Free NHS), relative to the signal corresponding to NHS covalently bound to DOTA (δbound −2.85 ppm; Bound NHS). […] Similar results were obtained by measuring the relative areas of the ^13C signals corresponding to free and bound NHS (δbound −25.5 ppm and δfree −25.2 ppm; FIG. 2).
Similar to that described above, the NMR data was used to estimate the percentage of free NHS. […] The stability of DOTA mono-NHS in water was also assessed using ^1H NMR by measuring the rate of change in the ratio Afree/Abound at neutral pH.

half-life: ~30 min
Structure (SMILES): O=C(O)CN1CCN(CC(=O)O)CCN(CC(=O)ON2C(=O)CCC2=O)CCN(CC(=O)O)CC1 [DOTA mono-NHS, 1,4,7,10-tetraazacyclododecane-1,4,7,10-tetra(aceticacid)-10-mono(N-hydroxysuccinimidyl ester)]
